Results on 19 molecules are retold here after patent publication US9573961B2, “Inhibitors of the renal outer medullary potassium channel” (Merck Sharp & Dohme Corp., priority 2012, dated 2017).

Chain of hROMK (hKir1.1) (P48048 whole entry): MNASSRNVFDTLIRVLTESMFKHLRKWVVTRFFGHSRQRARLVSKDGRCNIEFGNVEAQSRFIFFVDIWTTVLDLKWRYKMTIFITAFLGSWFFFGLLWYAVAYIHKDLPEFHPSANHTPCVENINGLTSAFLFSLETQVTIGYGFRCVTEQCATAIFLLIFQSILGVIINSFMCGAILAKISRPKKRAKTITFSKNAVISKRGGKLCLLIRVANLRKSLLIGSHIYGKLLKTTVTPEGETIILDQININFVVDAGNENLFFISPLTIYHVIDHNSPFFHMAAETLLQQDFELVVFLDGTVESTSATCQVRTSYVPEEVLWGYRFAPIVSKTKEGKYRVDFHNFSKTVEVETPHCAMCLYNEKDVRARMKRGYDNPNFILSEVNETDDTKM

One experiment deals with Kir1.1 (ROMK1) (Homo sapiens (Human), UniProt P48048). Description: Electrophysiology Assay (whole cell voltage clamp, IonWorks Quattro). It counts as cell-based. The conditions noted are these: Chinese hamster ovary cells stably expressing Kir1.1; block during voltage step to 0 mV; read-out: Electrophysiology IC50. How it is done: Chinese hamster ovary cells stably expressing Kir1.1 channels were maintained in T-75 flasks in cell culture media in a humidified 10% CO2 incubator at 37° C. Prior to an experiment, Kir1.1 expression was induced by overnight incubation with 1 mM sodium butyrate. […] After centrifugation, the cell pellet was resuspended in approximately 4.0 mL of bath solution and placed in the IonWorks instrument. The intracellular solution consisted of (in mM): 80 K gluconate, 40 KCl, 20 KF, 3.2 MgCl2, 3 EGTA, 5 Hepes, pH 7.4. Electrical access to the cytoplasm was achieved by perforation in 0.13 mg/mL amphotericin B for 4 min. […] Voltage protocols and current recordings were performed using the IonWorks HT software/hardware system. Currents were sampled at 1 kHz. No correction for liquid junction potentials was used. The test pulse, consisting of a 100 ms step to 0 mV from a holding potential of −70 mV, followed by a 100 ms voltage ramp from −70 mV to +70 mV, was applied before and after a 6 min compound incubation period. Test compounds were prepared by diluting DMSO stock solutions into the bath solution at 3× the final concentration and placed in the instrument in 96-well polypropylene plates. Current amplitudes were measured using the IonWorks software.
Chain of Kir1.1 (ROMK1) (P48048 whole entry): as above
In the case of `COc1cc([C@H]2CN3CCN(C(=O)C4CCc5cc(-n6cnnn6)ccc54)C[C@H]3CO2)ccc1C#N` (mixture of isomers) [Example 66, 2-methoxy-4-[(3S,9aS)-8-{[5-(1H-tetrazol-1-yl)-2,3-dihydro-1H-inden-1-yl]carbonyl}octahydropyrazino[2,1-c][1,4]oxazin-3-yl]benzonitrile], the half-maximal inhibitory concentration (IC50) (commonly the concentration that gives 50% inhibition) was 490 nM.

For the molecule `Cc1c([C@@H]2CN3CCN(C(=O)C4CCc5cc(-n6cnnn6)ccc54)C[C@H]3CO2)ccc(F)c1C#N` (mixture of isomers) [Example 2A, 3-((3R,9aS)-8-(5-(1H-tetrazol-1-yl)-2,3-dihydro-1H-indene-1-carbonyl)octahydropyrazino[2,1-c][1,4]oxazin-3-yl)-6-fluoro-2-methylbenzonitrile], the IC50 turned out to be 140 nM. Still for that read-out and setting: with `Cc1c([C@@H]2CN3CCN(C(=O)C4CCc5cc(-n6cnnn6)ccc54)C[C@H]3CO2)ccc(F)c1C#N` (mixture of isomers) [Example 2B, 3-((3R,9aS)-8-(5-(1H-tetrazol-1-yl)-2,3-dihydro-1H-indene-1-carbonyl)octahydropyrazino[2,1-c][1,4]oxazin-3-yl)-6-fluoro-2-methylbenzonitrile] the figure was 150 nM; with `N#Cc1cc([C@H]2CN3CCN(C(=O)C4CCc5cc(-n6cnnn6)ccc54)C[C@H]3CO2)ccc1F` (stereo partly drawn) [Example 3, 2-fluoro-5-[(3S,9aS)-8-{[5-(1H-tetrazol-1-yl)-2,3-dihydro-1H-inden-1-yl]carbonyl}octahydropyrazino[2,1-c][1,4]oxazin-3-yl]benzonitrile], 180 nM. The same measure, in the same setting: then `N#Cc1cc([C@@H]2CN3CCN(C(=O)C4CCc5cc(-n6cnnn6)ccc54)C[C@H]3CO2)ccc1F` (stereo partly drawn) [Example 4, 2-fluoro-5-[(3R,9aS)-8-{[5-(1H-tetrazol-1-yl)-2,3-dihydro-1H-inden-1-yl]carbonyl}octahydropyrazino[2,1-c][1,4]oxazin-3-yl]benzonitrile], with 190 nM; and `O=C1OCc2cc([C@H]3CN4CCN(C(=O)Cc5ccc(-n6cnnn6)cc5)C[C@H]4CO3)ccc21` [Example 7, 5-[(3S,9aS)-8-{[4-(1H-tetrazol-1-yl)phenyl]acetyl}octahydropyrazino[2,1-c][1,4]oxazin-3-yl]-2-benzofuran-1(3H)-one], with 170 nM; and `O=C1OCc2cc([C@@H]3CN4CCN(C(=O)Cc5ccc(-n6cnnn6)cc5)C[C@H]4CO3)ccc21` [Example 8, 5-[(3R,9aS)-8-{[4-(1H-tetrazol-1-yl)phenyl]acetyl}octahydropyrazino[2,1-c][1,4]oxazin-3-yl]-2-benzofuran-1(3H)-one], with 140 nM. On the same count and under the same terms, then `COc1cc(CC(=O)N2CCN3C[C@H](c4ccc5c(c4)COC5=O)OC[C@@H]3C2)c(F)cc1C#N` [Example 9, 5-fluoro-2-methoxy-4-{2-oxo-2-[(3S,9aS)-3-(1-oxo-1,3-dihydro-2-benzofuran-5-yl)hexahydropyrazino[2,1-c][1,4]oxazin-8(1H)-yl]ethyl}benzonitrile], with 140 nM; and `O=C1OCc2cc([C@H]3CN4CCN(C(=O)C5CCc6cc(-n7cnnn7)ccc65)C[C@H]4CO3)ccc21` (stereo partly drawn) [Example 11, 5-[(3S,9aS)-8-{[5-(1H-tetrazol-1-yl)-2,3-dihydro-1H-inden-1-yl]carbonyl}octahydropyrazino[2,1-c][1,4]oxazin-3-yl]-2-benzofuran-1(3H)-one], with 340 nM. Turning to `O=C1OCc2cc([C@@H]3CN4CCN(C(=O)C5CCc6cc(-n7cnnn7)ccc65)C[C@H]4CO3)ccc21` (stereo partly drawn) [Example 12, 5-[(3R,9aS)-8-{[5-(1H-tetrazol-1-yl)-2,3-dihydro-1H-inden-1-yl]carbonyl}octahydropyrazino[2,1-c][1,4]oxazin-3-yl]-2-benzofuran-1(3H)-one], the half-maximal inhibitory concentration (IC50) was found to be 250 nM. Still for that read-out and setting: with `COc1cc(CC(=O)N2CCN3C[C@H](c4ccc5c(c4C)COC5=O)OC[C@@H]3C2)c(F)cc1C#N` [Example 16, 5-fluoro-2-methoxy-4-{2-[(3S,9aS)-3-(4-methyl-1-oxo-1,3-dihydro-2-benzofuran-5-yl)hexahydropyrazino[2,1-c][1,4]oxazin-8(1H)-yl]-2-oxoethyl}benzonitrile] the figure was 180 nM; with `COc1cc(CC(=O)N2CCN3C[C@@H](c4ccc5c(c4C)COC5=O)OC[C@@H]3C2)c(F)cc1C#N` [Example 17, 5-fluoro-2-methoxy-4-{2-[(3R,9aS)-3-(4-methyl-1-oxo-1,3-dihydro-2-benzofuran-5-yl)hexahydropyrazino[2,1-c][1,4]oxazin-8(1H)-yl]-2-oxoethyl}benzonitrile], 160 nM; with `Cc1c([C@H]2CN3CCN(C(=O)C4Cc5ccc(-n6cnnn6)cc5C4)C[C@H]3CO2)ccc(F)c1C#N` (stereo partly drawn) [Example 74, 6-fluoro-2-methyl-3-[(3S,9aS)-8-{[5-(1H-tetrazol-1-yl)-2,3-dihydro-1H-inden-2-yl]carbonyl}octahydropyrazino[2,1-c][1,4]oxazin-3-yl]benzonitrile], 160 nM.

Still in this experiment, the particulars now being: Electrophysiology IC50, Chinese hamster ovary cells stably expressing Kir1.1; block during voltage step to 0 mV.
Turning to `Cc1c([C@H]2CN3CCN(C(=O)Cc4ccc(-n5cnnn5)cc4)C[C@H]3CO2)ccc2c1COC2=O` [Example 1B, 4-methyl-5-[(3S,9aS)-8-{[4-(1H-tetrazol-1-yl)phenyl]acetyl}octahydropyrazino[2,1-c][1,4]oxazin-3-yl]-2-benzofuran-1(3H)-one], the midpoint of inhibition, the IC50, lay at 330 nM. Still for that read-out and setting: then `N#Cc1cc([C@@H]2CN3CCN(C(=O)Cc4cc(F)c(C#N)cc4F)C[C@H]3CO2)ccc1F` [Example 5, 4-{2-[(3R,9aS)-3-(3-cyano-4-fluorophenyl)hexahydropyrazino[2,1-c][1,4]oxazin-8(1H)-yl]-2-oxoethyl}-2,5-difluorobenzonitrile], with 120 nM; and `COc1cc(CC(=O)N2CCN3C[C@@H](c4ccc(F)c(C#N)c4)OC[C@@H]3C2)ccc1C#N` [Example 6], with 160 nM.

Another experiment deals with hROMK (hKir1.1) (Homo sapiens (Human), UniProt P48048). Description: Thallium Flux Assay (ROMK channel functional thallium flux, FLIPR-Tetra). It counts as cell-based. The note with it: HEK293 cells stably expressing hROMK (hKir1.1); read-out: Thallium Flux IC50. How it is done:
Cell Culture Conditions—HEK293 cells stably expressing hROMK (hKir1.1) were grown at 37° C. in a 10% CO2 humidified incubator in complete growth media: Dulbecco's Modified Eagle Medium supplemented with non-essential amino acids, Penicillin/Streptomycin/Glutamine, G418 and FBS. At >80% confluency, aspirate the media from the flask and rinse with 10 mL Calcium/Magnesium-free PBS. […] To dislodge the cell, gently bang the side of the flask with your hand. Triturate the cells completely and then transfer the cells to 25 mL complete media. Centrifuge at 1,500 rpm for 6 min followed by resuspension in complete growth media and determine cell concentration. […] Under ideal growth conditions and appropriate tissue culture practices, this cell line is stable for 40-45 passages.
FluxOR Kit Components (Invitrogen F10017) • FluxOR™ Reagent (Component A) • FluxOR™ Assay Buffer (Component B)—10× Concentrate • PowerLoad™ Concentrate (Component C)—100× Concentrate • Probenecid (Component D)—Lyophilized sample is kept at −20° C. Water soluble, 100× after solubilization in 1 mL water. […] Store at 4° C. • Thallium sulfate (Tl2SO4) Concentrate (Component G)—50 mM in water. Store at 4° C. • DMSO (dimethyl sulfoxide, Component H)—1 mL (100%)
Can be stored at room temperature • Stimulant Buffer (prepared at 5× final concentration in 1× FluxOR™ Chloride-Free Buffer): 7.5 mM Thallium sulfate and 0.75 mM Potassium sulfate (to give a final assay concentration of 3 mM Thallium/0.3 mM Potassium). Store at 4° C. when not in use. If kept sterile, this solution is good for months.
Assay Protocol—The ROMK channel functional thallium flux assay is performed in 384 wells, using the FLIPR-Tetra instrument. HEK-hKir1.1 cells are seeded in Poly-D-Lysine microplates and kept in a 37° C.-10% CO2 incubator overnight. On the day of the experiment, the growth media is replaced with the FluxOR™ reagent loading buffer and incubated, protected from light, at ambient temperature (23-25° C.) for 90 min. The loading buffer is replaced with assay buffer±test compound followed by 30 min incubation at ambient temperature, where the Thallium/Potassium stimulant is added to the microplate.
Step Protocol • 1. Seed HEK-hKir1.1 cells (50 μl at 20,000 cells/well) in 384-well PDL coated Microplates • 2. Allow cells to adhere overnight in humidified 37° C./10% CO2 incubator • 3. Completely remove cell growth media from microplate and replace with 25 μl loading buffer • 4. Incubate Microplate at room temperature, protected form light, for 90 min • 5. Remove loading buffer and replace with 25 μl 1× Assay Buffer±test compound. • 6. Incubate microplate at room temperature, protected from light, for 30 min • 7. […] Excitation=400 nm, Emission=460 & 580 nm. Collect data for ˜10 min.
Data Calculation—The fluorescence intensity of wells containing 3 μM of a standard control ROMK inhibitor of the present invention is used to define the ROMK-sensitive component of thallium flux. Fluorescence in the presence of test compounds is normalized to control values to provide % fluorescence change.
Take `COc1cc([C@H]2CN3CCN(C(=O)C4CCc5cc(-n6cnnn6)ccc54)C[C@H]3CO2)ccc1C#N` (mixture of isomers) [Example 66, 2-methoxy-4-[(3S,9aS)-8-{[5-(1H-tetrazol-1-yl)-2,3-dihydro-1H-inden-1-yl]carbonyl}octahydropyrazino[2,1-c][1,4]oxazin-3-yl]benzonitrile]: the concentration for half-maximal inhibition (IC50) worked out at 370 nM. Still for that read-out and setting: with `Cc1c([C@@H]2CN3CCN(C(=O)C4CCc5cc(-n6cnnn6)ccc54)C[C@H]3CO2)ccc(F)c1C#N` (mixture of isomers) [Example 2A, 3-((3R,9aS)-8-(5-(1H-tetrazol-1-yl)-2,3-dihydro-1H-indene-1-carbonyl)octahydropyrazino[2,1-c][1,4]oxazin-3-yl)-6-fluoro-2-methylbenzonitrile] the figure was 170 nM; with `Cc1c([C@@H]2CN3CCN(C(=O)C4CCc5cc(-n6cnnn6)ccc54)C[C@H]3CO2)ccc(F)c1C#N` (mixture of isomers) [Example 2B, 3-((3R,9aS)-8-(5-(1H-tetrazol-1-yl)-2,3-dihydro-1H-indene-1-carbonyl)octahydropyrazino[2,1-c][1,4]oxazin-3-yl)-6-fluoro-2-methylbenzonitrile], 290 nM.

In the case of `Cc1c([C@H]2CN3CCN(C(=O)CCc4cccc(-n5cnnn5)c4)CC3CO2)ccc(F)c1C#N` (stereo in doubt) [Example 73, 6-fluoro-2-methyl-3-[(3S,9aS)-8-{3-[3-(1H-tetrazol-1-yl)phenyl]propanoyl}octahydropyrazino[2,1-c][1,4]oxazin-3-yl]benzonitrile], the IC50 turned out to be 140 nM.

Consider `Cc1c([C@H]2CN3CCN(C(=O)CCc4cccc(-n5cnnn5)c4)C[C@H]3CO2)ccc2c1COC2=O` [Example 71, 4-methyl-5-[(3S,9aS)-8-{3-[3-(1H-tetrazol-1-yl)phenyl]propanoyl}octahydropyrazino[2,1-c][1,4]oxazin-3-yl]-2-benzofuran-1(3H)-one], for which the concentration for half-maximal inhibition (IC50) amounted to 490 nM. On the same count and under the same terms, then `Cc1c([C@@H]2CN3CCN(C(=O)CCc4cccc(-n5cnnn5)c4)C[C@H]3CO2)ccc(F)c1C#N` [Example 72, 6-fluoro-2-methyl-3-[(3R,9aS)-8-{3-[3-(1H-tetrazol-1-yl)phenyl]propanoyl}octahydropyrazino[2,1-c][1,4]oxazin-3-yl]benzonitrile], with 270 nM.
